Assays:
[1] = target: T1, human mGlu2 (Homo sapiens, UniProt Q14416); assay: mGlu GIRK cell-based thallium flux assay, human mGlu2; settings: HEK-293 cells co-expressing human mGlu2 and GIRK; EC80 glutamate; Tl flux
T1 construct: expressed in transfected cells; host or cells: HEK-293
Description: The day before the assay, GIRK cells co-expressing human mGlu3, human or rat mGlu2, as described above, were plated in black-walled, clear-bottomed, amine-coated 384-well plates at a density of 15,000 cells/20 μL/well in the assay medium (glutamine-depleted basal DMEM supplemented with 10% dialyzed FBS, 20 mM HEPES, 1 mM sodium pyruvate). Cells were incubated at 37° C. in the presence of 5% CO2. […] Cells were washed with assay buffer using a microplate washer to remove the medium, resulting in 20 μL of buffer remaining in each well. Immediately, 20 μL of 2× Thallos dye solution was added to cells, and incubated for one hour at 25° C. During the cell dye loading incubation period, a 10-point concentration serial dilution of compound was created from a 10 mM DMSO compound stock by performing a 1:3 serial dilution in DMSO using the Bravo liquid handler. The 2× compound plate was generated by transferring 0.24 μL of the diluted compound in each well to a daughter plate using an Echo acoustic liquid handler.
(§1) After dye-loading, cell plates were washed with assay buffer to remove excess extracellular dye using a microplate washer, resulting in 20 μL of buffer remaining in each well. After a ten-minute equilibration period, cell, compound and agonist plates were loaded into a Hamamatsu μCell kinetic imaging plate reader equipped with liquid handler to monitor fluorescence changes at 480 nm excitation and 540 nm emission settings. Briefly, after collection of baseline fluorescence, 20 μL of compound was added and incubated for two minutes and twenty seconds. This is immediately followed by adding 10 μL of glutamate-thallium buffer to the wells containing compound. The fluorescent signal was monitored an additional 2.5 minutes after the glutamate addition. Multiple reference wells containing no compound received either no glutamate (for a baseline reference), […] glutamate, or ECmax glutamate (for normalization to maximum response). Fluorescence was measured throughout the experiment at a frequency of 1 measurement per every 2 seconds before the glutamate addition and a frequency of 1 measurement per every 1 second after the glutamate addition. Each compound concentration series occurred one time in each plate, and replicates from two or three plates were used in each experimental run. Thallium solutions were handled and disposed of according to guidelines from the Vanderbilt University Chemical Safety department.
Data were normalized using a static ratio function (F/F0) by dividing every fluorescent measurement by the initial fluorescent value for the corresponding well. The increase in signal resulting from the glutamate/thallium addition of the second add was measured by determining the slope from 3 seconds to 13 seconds after the addition. The average of all baseline slopes (no compound, no glutamate) was determined and this value was subtracted from all other slope values. The average of all ECmax slopes was determined and this value was used to normalize the baseline-corrected slopes to a percent max value (% Emax). The % Emax values for each compound series were plotted versus the log of the concentration and fit to a 4-parameter logistical equation with no fixed parameters.
Potency is reported as the IC50 resulting from the curve fit.

[2] = target: T2, human mGlu3 (Homo sapiens, UniProt Q14832); assay: mGlu GIRK cell-based thallium flux assay, human mGlu3; settings: HEK-293 cells co-expressing human mGlu3 and GIRK; EC80 glutamate; Tl flux
T2 construct: expressed in transfected cells; host or cells: HEK-293
Description: Human embryonic kidney (HEK-293) cell lines stably co-expressing human or rat mGlu2 and G protein-coupled inwardly rectifying potassium (GIRK) channels, or human mGlu3 and GIRK, were used for in vitro evaluation of compound activity in thallium flux assay using a fluorescent thallium indicator dye.
The day before the assay, GIRK cells co-expressing human mGlu3, human or rat mGlu2, as described above, were plated in black-walled, clear-bottomed, amine-coated 384-well plates at a density of 15,000 cells/20 μL/well in the assay medium (glutamine-depleted basal DMEM supplemented with 10% dialyzed FBS, 20 mM HEPES, 1 mM sodium pyruvate). Cells were incubated at 37° C. in the presence of 5% CO2. The next day, assay buffer (Hanks balanced salt solution, 20 mM HEPES, 4.16 mM sodium bicarbonate, pH 7.2) was prepared to dilute compounds and Thallos AM fluorescent dye solution. The 2× Thallos dye solution (final concentration 0.34 μM to the cells) was prepared by mixing the dye stock (2.97 mM in DMSO) to 1:1 with 10% pluronic acid before adding to the assay buffer. Cells were washed with assay buffer using a microplate washer to remove the medium, resulting in 20 μL of buffer remaining in each well. Immediately, 20 μL of 2× Thallos dye solution was added to cells, and incubated for one hour at 25° C. During the cell dye loading incubation period, a 10-point concentration serial dilution of compound was created from a 10 mM DMSO compound stock by performing a 1:3 serial dilution in DMSO using the Bravo liquid handler. The 2× compound plate was generated by transferring 0.24 μL of the diluted compound in each well to a daughter plate using an Echo acoustic liquid handler. This is further diluted in 40 μL assay buffer, resulting in a range from 30 μM to 1.5 nM final concentration in the assay. The agonist plate (5×) was prepared to include EC80 glutamate concentration (a concentration to elicit 80% of a maximally effective glutamate concentration) in thallium buffer (125 mM […], 1 mM magnesium sulfate, 1.8 mM calcium sulfate, 5 mM glucose, 10 mM HEPES, pH 7.2, 12.5 mM thallium sulfate).
as §1
Data were normalized using a static ratio function (F/F0) by dividing every fluorescent measurement by the initial fluorescent value for the corresponding well. The increase in signal resulting from the glutamate/thallium addition of the second add was measured by determining the slope from 3 seconds to 13 seconds after the addition. […]

T2 sequence (Q14832 23-879): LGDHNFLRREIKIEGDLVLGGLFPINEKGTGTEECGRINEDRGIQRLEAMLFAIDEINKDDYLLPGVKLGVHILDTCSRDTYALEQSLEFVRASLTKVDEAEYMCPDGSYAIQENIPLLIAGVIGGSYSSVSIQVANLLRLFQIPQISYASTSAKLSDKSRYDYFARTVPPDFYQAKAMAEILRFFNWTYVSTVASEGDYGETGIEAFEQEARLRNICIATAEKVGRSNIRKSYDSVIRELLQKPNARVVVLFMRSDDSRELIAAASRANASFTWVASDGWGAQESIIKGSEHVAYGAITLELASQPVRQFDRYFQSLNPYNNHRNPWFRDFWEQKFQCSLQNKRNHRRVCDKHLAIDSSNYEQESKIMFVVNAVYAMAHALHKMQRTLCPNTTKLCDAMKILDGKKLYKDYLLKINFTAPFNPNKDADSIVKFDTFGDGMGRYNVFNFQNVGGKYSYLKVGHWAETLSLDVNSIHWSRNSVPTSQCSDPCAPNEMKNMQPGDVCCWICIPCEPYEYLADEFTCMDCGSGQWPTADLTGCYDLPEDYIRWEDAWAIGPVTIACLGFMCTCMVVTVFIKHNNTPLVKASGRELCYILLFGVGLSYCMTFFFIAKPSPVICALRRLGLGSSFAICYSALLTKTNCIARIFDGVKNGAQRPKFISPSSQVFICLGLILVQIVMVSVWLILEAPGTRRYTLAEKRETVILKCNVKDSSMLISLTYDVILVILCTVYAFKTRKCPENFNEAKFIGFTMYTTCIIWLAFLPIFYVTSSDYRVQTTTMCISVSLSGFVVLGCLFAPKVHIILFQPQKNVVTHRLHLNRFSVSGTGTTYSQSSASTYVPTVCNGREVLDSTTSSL
T1 sequence (Q14416 19-872): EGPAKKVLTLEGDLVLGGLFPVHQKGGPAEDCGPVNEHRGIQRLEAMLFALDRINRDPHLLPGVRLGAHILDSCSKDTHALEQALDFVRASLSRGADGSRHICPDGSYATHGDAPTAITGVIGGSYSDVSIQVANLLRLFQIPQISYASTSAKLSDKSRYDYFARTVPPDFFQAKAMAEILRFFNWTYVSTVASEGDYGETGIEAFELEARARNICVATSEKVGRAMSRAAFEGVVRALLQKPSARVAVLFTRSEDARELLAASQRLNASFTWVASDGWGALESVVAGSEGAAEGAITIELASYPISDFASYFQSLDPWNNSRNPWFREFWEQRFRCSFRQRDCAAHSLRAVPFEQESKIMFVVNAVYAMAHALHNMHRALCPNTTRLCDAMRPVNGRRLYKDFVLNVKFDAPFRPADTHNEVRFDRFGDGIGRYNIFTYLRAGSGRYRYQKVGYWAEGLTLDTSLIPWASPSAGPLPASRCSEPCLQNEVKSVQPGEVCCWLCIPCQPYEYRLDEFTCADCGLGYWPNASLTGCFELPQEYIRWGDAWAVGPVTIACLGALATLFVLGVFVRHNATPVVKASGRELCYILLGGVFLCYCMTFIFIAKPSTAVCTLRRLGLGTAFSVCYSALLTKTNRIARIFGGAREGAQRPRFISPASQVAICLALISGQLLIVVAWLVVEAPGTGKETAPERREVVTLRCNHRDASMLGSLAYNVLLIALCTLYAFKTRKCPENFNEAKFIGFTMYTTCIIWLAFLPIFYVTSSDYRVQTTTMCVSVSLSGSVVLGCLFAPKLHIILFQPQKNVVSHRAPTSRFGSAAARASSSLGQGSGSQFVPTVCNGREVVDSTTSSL

With `Cn1ccc(COc2cc3c(cc2-c2ccc(C#N)cc2)C(=O)NC3)n1` [Compound 14, 4-(6-((1-methyl-1H-pyrazol-3-yl)methoxy)-3-oxoisoindolin-5-yl)benzonitrile] the IC50 [1] was 242 nM and the “Human mGlu3 GIRK IC50 (nM)” value [2] was “Inactive”.

`O=C1NCc2cc(OCc3ccn(C(F)F)n3)c(-c3ccc(F)cc3)cc21` [Compound 17, 5-((1-(difluoromethyl)-1H-pyrazol-3-yl)methoxy)-6-(4-fluorophenyl)isoindolin-1-one] was tested, and the IC50 [1] was 292 nM and the “Human mGlu3 GIRK IC50 (nM)” value [2] was “Inactive”.

With `Cc1ocnc1COc1cc2c(cc1-c1ccc(F)cc1)C(=O)NC2` [Compound 9, 6-(4-fluorophenyl)-5-((5-methyloxazol-4-yl)methoxy)isoindolin-1-one] the IC50 [1] was 150 nM and the “Human mGlu3 GIRK IC50 (nM)” value [2] was “Inactive”.

With `[2H]C([2H])([2H])Oc1ccc(-c2cc3c(cc2OCc2ccn(C)n2)CNC3=O)cc1` [Compound 24, 6-(4-(methoxy-d3)phenyl)-5-((1-methyl-1H-pyrazol-3-yl)methoxy)isoindolin-1-one] the IC50 [1] was 99.5 nM and the “Human mGlu3 GIRK IC50 (nM)” value [2] was “Inactive”.

With `[2H]C([2H])([2H])Oc1ccccc1-c1cc2c(cc1OCc1ccn(C)n1)CNC2=O` [Compound 23, 6-(2-(methoxy-d3)phenyl)-5-((1-methyl-1H-pyrazol-3-yl)methoxy)isoindolin-1-one] the IC50 [1] was 7720 nM and the “Human mGlu3 GIRK IC50 (nM)” value [2] was “Inactive”.

In the case of `[2H]C([2H])([2H])Oc1ccc(-c2cc3c(cc2OCc2csc(C)n2)CNC3=O)cc1` [Compound 22, 6-(4-(methoxy-d3)phenyl)-5-((2-methylthiazol-4-yl)methoxy)isoindolin-1-one], the IC50 [1] is reported as 115 nM and the “Human mGlu3 GIRK IC50 (nM)” value [2] is reported as “Inactive”.

`COc1cccc(COc2cc3c(cc2-c2ccc(F)cc2)C(=O)NC3)c1` [Compound 7, 6-(4-fluorophenyl)-5-((3-methoxybenzyl)oxy)isoindolin-1-one] was tested, and the IC50 [1] was 8290 nM and the “Human mGlu3 GIRK IC50 (nM)” value [2] was “Inactive”.

In the case of `COc1ccc(-c2cc3c(cc2OCc2csc(C)n2)CNC3=O)cc1` [Compound 19, 6-(4-methoxyphenyl)-5-((2-methylthiazol-4-yl)methoxy)isoindolin-1-one], the IC50 [1] is reported as 119 nM and the “Human mGlu3 GIRK IC50 (nM)” value [2] is reported as “Inactive”.

In the case of `Cc1csc(COc2cc3c(cc2-c2ccc(F)cc2)C(=O)NC3)n1` [Compound 3, 6-(4-fluorophenyl)-5-((4-methylthiazol-2-yl)methoxy)isoindolin-1-one], the IC50 [1] is reported as 418 nM and the “Human mGlu3 GIRK IC50 (nM)” value [2] is reported as “Inactive”.

`CC(C)n1ccc(COc2cc3c(cc2-c2ccc(F)cc2)C(=O)NC3)n1` [Compound 4, 6-(4-fluorophenyl)-5-((1-isopropyl-1H-pyrazol-3-yl)methoxy)isoindolin-1-one] was tested, and the IC50 [1] was 261 nM and the “Human mGlu3 GIRK IC50 (nM)” value [2] was “Inactive”.

With `COc1ccc(-c2cc3c(cc2OCc2ccn(C(F)F)n2)CNC3=O)c(F)c1` [Compound 25, 5-((1-(difluoromethyl)-1H-pyrazol-3-yl)methoxy)-6-(2-fluoro-4-methoxyphenyl)isoindolin-1-one] the IC50 [1] was 40 nM and the “Human mGlu3 GIRK IC50 (nM)” value [2] was “Inactive”.

`COc1ccc(-c2cc3c(cc2OCc2ccn(C)n2)CNC3=O)c(F)c1` [Compound 11, 6-(2-fluoro-4-methoxyphenyl)-5-((1-methyl-1H-pyrazol-3-yl)methoxy)isoindolin-1-one] was tested, and the IC50 [1] was 131 nM and the “Human mGlu3 GIRK IC50 (nM)” value [2] was “Inactive”.

In the case of `Cc1ncc(COc2cc3c(cc2-c2ccc(F)cc2)C(=O)NC3)s1` [Compound 2, 6-(4-fluorophenyl)-5-((2-methylthiazol-5-yl)methoxy)isoindolin-1-one], the IC50 [1] is reported as 380 nM and the “Human mGlu3 GIRK IC50 (nM)” value [2] is reported as “Inactive”.

In the case of `Cc1ccc(COc2cc3c(cc2-c2ccc(F)cc2)C(=O)NC3)cn1` [Compound 5, 6-(4-fluorophenyl)-5-((6-methylpyridin-3-yl)methoxy)isoindolin-1-one], the IC50 [1] is reported as 392 nM and the “Human mGlu3 GIRK IC50 (nM)” value [2] is reported as “Inactive”.

For `COc1ccc(-c2cc3c(cc2OCc2ccn(C)n2)CNC3=O)cc1` [Compound 12, 6-(4-methoxyphenyl)-5-((1-methyl-1H-pyrazol-3-yl)methoxy)isoindolin-1-one], the IC50 [1] was 170 nM and the “Human mGlu3 GIRK IC50 (nM)” value [2] was “Inactive”.

`Cn1ccc(COc2cc3c(cc2-c2ccccc2F)C(=O)NC3)n1` [Compound 13, 6-(2-fluorophenyl)-5-((1-methyl-1H-pyrazol-3-yl)methoxy)isoindolin-1-one] was tested, and the IC50 [1] was 214 nM and the “Human mGlu3 GIRK IC50 (nM)” value [2] was “Inactive”.

For `[2H]C([2H])([2H])Oc1ccccc1-c1cc2c(cc1OCc1csc(C)n1)CNC2=O` [Compound 21, 6-(2-(methoxy-d3)phenyl)-5-((2-methylthiazol-4-yl)methoxy)isoindolin-1-one], the IC50 [1] was 1320 nM and the “Human mGlu3 GIRK IC50 (nM)” value [2] was “Inactive”.

In the case of `COc1ccc(-c2cc3c(cc2OCc2csc(C)n2)CNC3=O)c(F)c1` [Compound 15, 6-(2-fluoro-4-methoxyphenyl)-5-((2-methylthiazol-4-yl)methoxy)isoindolin-1-one], the IC50 [1] is reported as 360 nM and the “Human mGlu3 GIRK IC50 (nM)” value [2] is reported as “Inactive”.

In the case of `O=C1NCc2cc(OCc3cc4n(n3)CCCO4)c(-c3ccc(F)cc3)cc21` [Compound 10, 5-((6,7-dihydro-5H-pyrazolo[5,1-b][1,3]oxazin-2-yl)methoxy)-6-(4-fluorophenyl)isoindolin-1-one], the IC50 [1] is reported as 423 nM and the “Human mGlu3 GIRK IC50 (nM)” value [2] is reported as “Inactive”.

In the case of `Cn1ccc(COc2cc3c(cc2-c2ccc(F)cc2)C(=O)NC3)n1` [Compound 1, 6-(4-fluorophenyl)-5-((1-methyl-1H-pyrazol-3-yl)methoxy)isoindolin-1-one], the IC50 [1] is reported as 594 nM and the “Human mGlu3 GIRK IC50 (nM)” value [2] is reported as “Inactive”.

`Cc1nc(COc2cc3c(cc2-c2ccccc2F)C(=O)NC3)cs1` [Compound 16, 6-(2-fluorophenyl)-5-((2-methylthiazol-4-yl)methoxy)isoindolin-1-one] was tested, and the IC50 [1] was 357 nM and the “Human mGlu3 GIRK IC50 (nM)” value [2] was “Inactive”.

In the case of `O=C1NCc2cc(OCc3ccccc3F)c(-c3ccc(F)cc3)cc21` [Compound 8, 5-((2-fluorobenzyl)oxy)-6-(4-fluorophenyl)isoindolin-1-one], the IC50 [1] is reported as 3200 nM and the “Human mGlu3 GIRK IC50 (nM)” value [2] is reported as “Inactive”.

In the case of `Cc1nc(COc2cc3c(cc2-c2ccc(F)cc2)C(=O)NC3)cs1` [Compound 18, 6-(4-fluorophenyl)-5-((2-methylthiazol-4-yl)methoxy)isoindolin-1-one], the IC50 [1] is reported as 363 nM and the “Human mGlu3 GIRK IC50 (nM)” value [2] is reported as “Inactive”.

`O=C1NCc2cc(OCc3ccncc3)c(-c3ccc(F)cc3)cc21` [Compound 6, 6-(4-fluorophenyl)-5-(pyridin-4-ylmethoxy)isoindolin-1-one] was tested, and the IC50 [1] was 237 nM and the “Human mGlu3 GIRK IC50 (nM)” value [2] was “Inactive”.
